The record followed here is ChEMBL document CHEMBL1135875, “Hydrophobic modifications at 1-phosphate of inositol 1,4,5-trisphosphate analogues enhance receptor binding” (Bioorg Med Chem Lett, 2002).

The target of experiment [1] is T1, Inositol 1,4,5-trisphosphate-gated calcium channel ITPR1 (Homo sapiens, UniProt Q14643). Kind of experiment: Dissociation constant using IP3-binding domain (IBD) of human Type 1 inositol 1,4,5-trisphosphate receptor.
Experiment [2] addresses T1, Inositol 1,4,5-trisphosphate-gated calcium channel ITPR1. In words: Affinity towards IP3-binding domain (IBD) of human Type 1 inositol 1,4,5-trisphosphate receptor was determined relative to compound 2.

Each structure is given as a SMILES string.

T1 sequence (Q14643 whole entry, the tested form may be a part): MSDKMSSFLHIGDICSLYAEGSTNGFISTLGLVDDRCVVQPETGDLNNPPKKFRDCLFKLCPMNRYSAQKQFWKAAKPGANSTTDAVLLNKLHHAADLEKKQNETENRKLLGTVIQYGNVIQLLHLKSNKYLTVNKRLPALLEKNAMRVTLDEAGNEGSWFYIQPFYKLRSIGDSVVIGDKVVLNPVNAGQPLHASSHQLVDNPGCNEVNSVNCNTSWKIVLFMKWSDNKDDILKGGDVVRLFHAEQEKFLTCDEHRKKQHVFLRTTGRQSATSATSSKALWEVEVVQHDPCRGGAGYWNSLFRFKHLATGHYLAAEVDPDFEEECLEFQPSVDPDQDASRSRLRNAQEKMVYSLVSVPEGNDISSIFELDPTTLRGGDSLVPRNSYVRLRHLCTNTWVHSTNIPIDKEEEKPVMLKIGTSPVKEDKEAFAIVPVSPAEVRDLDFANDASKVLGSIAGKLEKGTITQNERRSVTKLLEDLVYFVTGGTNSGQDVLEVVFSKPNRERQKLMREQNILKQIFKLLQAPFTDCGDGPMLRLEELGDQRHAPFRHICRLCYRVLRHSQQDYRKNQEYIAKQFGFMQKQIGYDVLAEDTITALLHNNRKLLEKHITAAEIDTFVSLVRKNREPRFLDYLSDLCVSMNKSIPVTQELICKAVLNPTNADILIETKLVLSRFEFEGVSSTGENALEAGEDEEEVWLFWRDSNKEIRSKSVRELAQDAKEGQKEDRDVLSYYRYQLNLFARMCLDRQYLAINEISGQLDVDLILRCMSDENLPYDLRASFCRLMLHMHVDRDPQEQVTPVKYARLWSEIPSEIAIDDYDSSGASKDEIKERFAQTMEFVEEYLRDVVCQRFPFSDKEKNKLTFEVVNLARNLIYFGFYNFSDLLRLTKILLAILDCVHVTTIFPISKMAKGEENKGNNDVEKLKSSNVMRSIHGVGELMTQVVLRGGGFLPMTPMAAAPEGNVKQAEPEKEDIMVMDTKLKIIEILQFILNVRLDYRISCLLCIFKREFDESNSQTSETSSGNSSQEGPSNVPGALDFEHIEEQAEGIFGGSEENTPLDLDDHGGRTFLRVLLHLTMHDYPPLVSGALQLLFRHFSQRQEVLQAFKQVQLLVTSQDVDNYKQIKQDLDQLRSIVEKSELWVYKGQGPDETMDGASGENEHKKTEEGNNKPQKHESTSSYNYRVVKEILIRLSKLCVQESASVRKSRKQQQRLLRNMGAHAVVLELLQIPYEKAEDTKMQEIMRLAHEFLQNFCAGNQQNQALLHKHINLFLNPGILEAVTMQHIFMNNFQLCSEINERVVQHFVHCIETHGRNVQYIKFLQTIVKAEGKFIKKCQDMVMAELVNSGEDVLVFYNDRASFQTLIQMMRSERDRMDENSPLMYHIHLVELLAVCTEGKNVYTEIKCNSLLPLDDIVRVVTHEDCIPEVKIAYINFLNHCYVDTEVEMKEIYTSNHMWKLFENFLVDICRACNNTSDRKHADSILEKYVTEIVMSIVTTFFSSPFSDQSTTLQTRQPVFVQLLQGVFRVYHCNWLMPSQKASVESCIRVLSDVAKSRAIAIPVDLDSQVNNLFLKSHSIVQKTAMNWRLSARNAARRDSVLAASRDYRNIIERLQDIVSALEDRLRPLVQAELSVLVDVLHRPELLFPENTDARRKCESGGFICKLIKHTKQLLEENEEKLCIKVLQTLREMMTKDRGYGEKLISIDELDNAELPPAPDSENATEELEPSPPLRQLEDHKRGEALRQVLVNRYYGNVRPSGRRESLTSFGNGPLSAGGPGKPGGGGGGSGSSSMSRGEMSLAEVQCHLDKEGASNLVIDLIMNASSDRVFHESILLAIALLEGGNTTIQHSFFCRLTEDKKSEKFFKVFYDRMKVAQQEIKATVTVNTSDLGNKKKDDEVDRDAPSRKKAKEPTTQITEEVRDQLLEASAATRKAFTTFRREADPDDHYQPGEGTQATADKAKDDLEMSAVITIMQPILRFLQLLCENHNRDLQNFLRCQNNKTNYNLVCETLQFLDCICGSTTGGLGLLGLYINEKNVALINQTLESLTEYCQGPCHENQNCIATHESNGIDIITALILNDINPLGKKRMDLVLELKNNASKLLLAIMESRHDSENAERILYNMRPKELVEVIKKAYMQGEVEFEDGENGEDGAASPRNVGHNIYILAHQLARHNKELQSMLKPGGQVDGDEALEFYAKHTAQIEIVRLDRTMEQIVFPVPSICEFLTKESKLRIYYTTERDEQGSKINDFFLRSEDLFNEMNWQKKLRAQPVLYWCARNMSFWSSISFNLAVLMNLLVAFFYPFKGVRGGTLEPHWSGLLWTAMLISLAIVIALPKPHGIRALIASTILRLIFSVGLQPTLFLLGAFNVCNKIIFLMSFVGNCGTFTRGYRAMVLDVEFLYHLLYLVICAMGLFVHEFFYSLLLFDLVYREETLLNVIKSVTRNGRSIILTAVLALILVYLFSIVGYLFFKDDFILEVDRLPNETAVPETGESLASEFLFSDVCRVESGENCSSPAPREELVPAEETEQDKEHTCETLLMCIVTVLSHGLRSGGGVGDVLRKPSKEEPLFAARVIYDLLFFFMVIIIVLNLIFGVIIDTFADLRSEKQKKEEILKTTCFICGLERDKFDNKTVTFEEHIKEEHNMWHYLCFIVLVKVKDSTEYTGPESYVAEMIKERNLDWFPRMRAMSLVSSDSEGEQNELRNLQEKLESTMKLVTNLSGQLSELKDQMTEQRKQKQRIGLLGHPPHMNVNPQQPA

One may read the Kd as the free concentration of one partner at which half of the binding sites on the other are occupied at equilibrium, for simple one-to-one binding. For `NCCCOP(=O)(O)O[C@@H]1[C@H](O)[C@H](O)[C@@H](OP(=O)(O)O)[C@H](OP(=O)(O)O)[C@H]1O`, the Kd in experiment [1] amounted to 1500 nM. In experiment [2], the Relative affinity was found to be 1. In the case of `CN(C)c1ccc(C(=C2C=CC(=[N+](C)C)C=C2)c2ccc(C(=O)NCCCOP(=O)(O)O[C@@H]3[C@H](O)[C@H](O)[C@@H](OP(=O)(O)O)[C@H](OP(=O)(O)O)[C@H]3O)cc2)cc1`, the Relative affinity in experiment [2] was determined as 950.

`CN(C)c1ccc2c(-c3ccc(C(=O)NCCCOP(=O)(O)O[C@@H]4[C@H](O)[C@H](O)[C@@H](OP(=O)(O)O)[C@H](OP(=O)(O)O)[C@H]4O)cc3C(=O)[O-])c3ccc(=[N+](C)C)cc-3oc2c1`: in experiment [1], the Kd was determined as 620 nM. For the same molecule, the Relative affinity in experiment [2] was determined as 2.4.
